Assay results taken from ChEMBL document CHEMBL1201862, “PubChem BioAssay data set” (2004).
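Each compound was tested at five concentrations against cells in 96-well plates for 48 hours. The concentration for 50% growth inhibition is given as GI50.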 The source made the active and inactive calls. Rule as the data show it: active = GI50 up to about 1.1 µM and inactive = higher.

Experiments:
Test in all cases: inhibition of tumour cell growth, NCI panel, 48 h
A549 = system: A549
BT-549 = system: BT-549
CAKI-1 = system: CAKI-1
EKVX = system: EKVX
HCT-15 = system: HCT-15
HOP-92 = system: HOP-92
Hs-578T = system: Hs-578T
K562 = system: K562
MDA-MB-435 = system: MDA-MB-435
NCI-H23 = system: NCI-H23
NCI/ADR-RES = system: NCI/ADR-RES
OVCAR-8 = system: OVCAR-8
RPMI-8226 = system: RPMI-8226
SF-295 = system: SF-295
SF-539 = system: SF-539
SK-OV-3 = system: SK-OV-3
SNB-19 = system: SNB-19
SR = system: SR
TK-10 = system: TK-10
UACC-62 = system: UACC-62

SMILES | GI50 (A549) | GI50 (BT-549) | GI50 (CAKI-1) | GI50 (EKVX) | GI50 (HCT-15) [µM] | GI50 (HOP-92) | GI50 (Hs-578T) | GI50 (K562) | GI50 (MDA-MB-435) | GI50 (NCI-H23) | GI50 (NCI/ADR-RES) | GI50 (OVCAR-8) | GI50 (RPMI-8226) | GI50 (SF-295) | GI50 (SF-539) | GI50 (SK-OV-3) | GI50 (SNB-19) | GI50 (SR) | GI50 (TK-10) | GI50 (UACC-62)
Cn1c2c3c(F)c(F)ccc3nc-2cc2ccccc21 | 2.34 µM (inactive) | 3 µM (inactive) | 2.39 µM (inactive) | 12.4 µM (inactive) | 1.49 | 4.76 µM (inactive) | 12.2 µM (inactive) | 3.11 µM (inactive) | 3.88 µM (inactive) | 1.4 µM (inactive) | 1.49 µM (inactive) | 1.74 µM (inactive) | 0.711 µM (active) | 1.12 µM (active) | 2.06 µM (inactive) | 5.57 µM (inactive) | 3.79 µM (inactive) | 2.33 µM (inactive) | 0.828 µM (active) | 3.44 µM (inactive)
O=C(Nc1ccccc1)c1cc(S(=O)(=O)N2CCNNC2=O)c(S)cc1Cl | > 100 µM (inactive) | 37.5 µM (inactive) | > 100 µM (inactive) | > 100 µM (inactive) | 59.2 | 47.3 µM (inactive) | > 100 µM (inactive) | 84.9 µM (inactive) | > 100 µM (inactive) |  | 34.7 µM (inactive) | 32.3 µM (inactive) | 33.9 µM (inactive) | > 100 µM (inactive) | > 100 µM (inactive) |  | > 100 µM (inactive) | 95.3 µM (inactive) | > 100 µM (inactive) | > 100 µM (inactive)
Cc1ccc([N+](=O)[O-])c2c(NCCC[N+](C)(C)[O-])c3ccccc3nc12 | 1.53 µM (inactive) | 1.5 µM (inactive) | 21 µM (inactive) | 1.11 µM (active) | 4.99 | 0.962 µM (active) | 3.24 µM (inactive) | 1.52 µM (inactive) | 1.77 µM (inactive) | 0.573 µM (active) | > 95.3 µM (inactive) | 4.75 µM (inactive) | 2.74 µM (inactive) | 3.43 µM (inactive) | 2.6 µM (inactive) | 3.86 µM (inactive) | 1.17 µM (inactive) | 0.218 µM (active) | 11.6 µM (inactive) | 1.64 µM (inactive)
O=C(O)C1(Nc2ccc(Cl)cc2)CCCC1 | > 100 µM (inactive) | > 100 µM (inactive) | > 100 µM (inactive) | > 100 µM (inactive) | 11.5 | > 100 µM (inactive) | > 100 µM (inactive) | > 100 µM (inactive) | > 100 µM (inactive) | > 100 µM (inactive) | > 100 µM (inactive) | > 100 µM (inactive) | > 100 µM (inactive) | 97.9 µM (inactive) |  | > 100 µM (inactive) | > 100 µM (inactive) | > 100 µM (inactive) | > 100 µM (inactive) | > 100 µM (inactive)
CCN(CC)CCSc1nc2c(c(=N)n1-c1ccccc1)c(=S)n(-c1ccccc1)c(=S)n2-c1ccccc1 | 2.08 µM (inactive) | 2.23 µM (inactive) | 1.5 µM (inactive) | 2.54 µM (inactive) | 1.77 | 1.41 µM (inactive) | 2.58 µM (inactive) | 0.601 µM (active) | 1.85 µM (inactive) | 3.69 µM (inactive) | 5.36 µM (inactive) | 1.71 µM (inactive) | 0.275 µM (active) | 12.8 µM (inactive) | 4.45 µM (inactive) | 6.65 µM (inactive) | 18.3 µM (inactive) | 0.257 µM (active) | 1.73 µM (inactive) | 1.71 µM (inactive)
CS(=O)(=O)OC1CCN(C2(c3cccc(O)c3)CCCCC2)CC1 | > 100 µM (inactive) | 46.2 µM (inactive) | > 100 µM (inactive) | 92.7 µM (inactive) | 79.1 | 51.3 µM (inactive) | > 100 µM (inactive) | 39.6 µM (inactive) | 29.2 µM (inactive) | 46.5 µM (inactive) | 48.1 µM (inactive) | 57.7 µM (inactive) | 20.7 µM (inactive) | 36 µM (inactive) | 27.4 µM (inactive) | 37 µM (inactive) | > 100 µM (inactive) | 23.6 µM (inactive) | > 100 µM (inactive) | 88.5 µM (inactive)
CC(=O)C(N1CCCCC1)C(O)(C(F)(F)F)C(F)(F)F (stereo not given) | > 100 µM (inactive) | > 100 µM (inactive) | > 100 µM (inactive) | > 100 µM (inactive) | 79.3 | 54.3 µM (inactive) | 41.1 µM (inactive) | 50.4 µM (inactive) | > 100 µM (inactive) | 39.5 µM (inactive) | > 100 µM (inactive) | > 100 µM (inactive) | 81.8 µM (inactive) | > 100 µM (inactive) | > 100 µM (inactive) | > 100 µM (inactive) | > 100 µM (inactive) | > 100 µM (inactive) | > 100 µM (inactive) | 86.9 µM (inactive)
CO/N=C(/C(=O)OC)c1ccccc1COc1ccccc1C(F)(F)F | 21.7 µM (inactive) | 79.1 µM (inactive) | 20.1 µM (inactive) | 11.3 µM (inactive) | 33.3 | 30.2 µM (inactive) | 47.3 µM (inactive) | 19.6 µM (inactive) | 24.4 µM (inactive) | 22.1 µM (inactive) | 29.3 µM (inactive) | > 100 µM (inactive) | 14.4 µM (inactive) | 10.7 µM (inactive) | 20.3 µM (inactive) | 16.6 µM (inactive) | 98.2 µM (inactive) | 8.32 µM (inactive) | 54.5 µM (inactive) | 26.3 µM (inactive)
FC(F)(F)c1cc(Cl)cnc1N/N=C(/c1ccccc1)c1ccccn1 | 3.03 µM (inactive) | 6.93 µM (inactive) | 3.37 µM (inactive) | 1.03 µM (active) | 0.74 | 1.81 µM (inactive) | 0.422 µM (active) | 2.16 µM (inactive) | 4.85 µM (inactive) | 2.55 µM (inactive) | 2.34 µM (inactive) | 1.8 µM (inactive) | 4.11 µM (inactive) | 2.16 µM (inactive) | 3.66 µM (inactive) | 2.49 µM (inactive) | 4.67 µM (inactive) | 0.708 µM (active) |  | 3.27 µM (inactive)
CC(C)C(OC(=O)c1ccc(NCc2cc(O)ccc2O)cc1)C(C)C | 5.77 µM (inactive) | 0.547 µM (active) | 0.218 µM (active) | 1.81 µM (inactive) | 0.317 | 0.424 µM (active) | 1.02 µM (active) | 1.29 µM (inactive) | 1.29 µM (inactive) | 1.89 µM (inactive) | 1.42 µM (inactive) | 1.4 µM (inactive) | 0.194 µM (active) | 3.74 µM (inactive) | 1.09 µM (active) |  | 1.29 µM (inactive) | 0.617 µM (active) | 1.66 µM (inactive) | 1.29 µM (inactive)
O=C1C2Cc3c(n(C(=O)c4ccccc4)c4ccccc34)CC2C(=O)N1c1ccc(Nc2ccc(N3C(=O)C4Cc5c(n(C(=O)c6ccccc6)c6ccccc56)CC4C3=O)cc2)cc1 (stereo not given) | > 100 µM (inactive) | > 100 µM (inactive) | > 100 µM (inactive) | > 100 µM (inactive) | > 100 | 46 µM (inactive) | > 100 µM (inactive) | > 100 µM (inactive) | > 100 µM (inactive) | > 100 µM (inactive) | > 100 µM (inactive) | > 100 µM (inactive) |  | > 100 µM (inactive) |  | > 100 µM (inactive) | > 100 µM (inactive) | 44.4 µM (inactive) | > 100 µM (inactive) | 61 µM (inactive)
CC[C@]12C=CCN3CC[C@@]4(c5cc(N=O)c(OC)cc5N(C)[C@H]4[C@@](O)(C(=O)OC)[C@@H]1OC(C)=O)[C@@H]32 | 58.9 µM (inactive) | > 100 µM (inactive) | 41 µM (inactive) | > 100 µM (inactive) | 86.3 | > 100 µM (inactive) | 73.5 µM (inactive) | 46.7 µM (inactive) | 25.1 µM (inactive) | > 100 µM (inactive) | > 100 µM (inactive) | > 100 µM (inactive) |  | 99.5 µM (inactive) | 27.6 µM (inactive) | > 100 µM (inactive) | > 100 µM (inactive) | 47.8 µM (inactive) | > 100 µM (inactive) | 51.4 µM (inactive)
O=C1c2cccc3cccc(c23)C(=O)N1CCCNOCCONCCCN1C(=O)c2cccc3cccc(c23)C1=O | 95.9 µM (inactive) | 73.3 µM (inactive) | 49.3 µM (inactive) | > 100 µM (inactive) | 44 | 56 µM (inactive) | 92.3 µM (inactive) | 27 µM (inactive) | > 100 µM (inactive) | 99.8 µM (inactive) | 12.7 µM (inactive) | 43.3 µM (inactive) | 16.9 µM (inactive) | > 100 µM (inactive) |  | > 100 µM (inactive) | 47.9 µM (inactive) | 81.7 µM (inactive) | > 100 µM (inactive) | > 100 µM (inactive)
C=CC[C@H](O)[C@@](NC(=O)OCc1ccccc1)(Sc1ccc(C)cc1)C(F)(F)F | 27.7 µM (inactive) | 10.9 µM (inactive) | 24.7 µM (inactive) | 30.6 µM (inactive) | 24.9 | 38.6 µM (inactive) | 24 µM (inactive) | 35 µM (inactive) | 24.1 µM (inactive) | 24.5 µM (inactive) | 31.1 µM (inactive) | 16.9 µM (inactive) | 23.4 µM (inactive) | 21.9 µM (inactive) | 14.6 µM (inactive) |  | 32.6 µM (inactive) | 20.1 µM (inactive) | 33.8 µM (inactive) | 30.7 µM (inactive)
